PubChem BioAssay AID2060906 (Molecular Pharmacology Branch, DTP, NCI, 2025)

Test system: 485176-168-R4-J1-PDC complex spheroid growth
Test: Anticancer human tumor 485176-168-R4-J1-PDC patient-derived pancreatic adenocarcinoma cell line growth inhibition [RAS]
Details: for viability, T/C: stronger effect = lower value
In short: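 Multi-cell-type spheroids: tumor cells plus HUVEC endothelial cells and mesenchymal stem cells. RAS-pathway inhibitors were combined with targeted agents, each dosed in half-log steps down from clinical Cmax, or from 10 microM when Cmax was unknown.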
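Further: spheroids exposed to compounds for seven days before readout.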
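Wherever viability, T/C is given: luminescence viability expressed relative to DMSO vehicle wells set as 100%.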

Structure (SMILES): CCc1c2c(nc3ccc(O)cc13)-c1cc3c(c(=O)n1C2)COC(=O)[C@]3(O)CC
- viability, T/C (compound 0.003 µM): 86.2% [middle of 4 runs]
- viability, T/C (compound 0.00949 µM): 66% [middle of 4 runs]
- viability, T/C (compound 0.03 µM): 36.5% [middle of 4 runs]
- viability, T/C (compound 0.0949 µM): 14% [middle of 4 runs]
- viability, T/C (compound 0.3 µM): 7.88% [middle of 4 runs]
- IC50 (curve of compound): 17.9 nM [middle of 4 runs]

Structure (SMILES): C=CC(=O)Nc1cc(Nc2nccc(-c3cn(C)c4ccccc34)n2)c(OC)cc1N(C)CCN(C)C + CCn1c(-c2cc(N3CCN(C)CC3)cnc2C(C)OC)c2c3cc(ccc31)-c1csc(n1)CC(NC(=O)C1CC1C)C(=O)N1CCCC(N1)C(=O)OCC(C)(C)C2
- IC50 (curve of first compound, second compound 0.000949 µM): > 1 µM
- IC50 (curve of first compound, second compound 0.003 µM): > 1 µM
- IC50 (curve of first compound, second compound 0.00949 µM): > 1 µM
- IC50 (curve of first compound, second compound 0.03 µM): > 1 µM
- IC50 (curve of first compound, second compound 0.0949 µM): > 1 µM
- IC50 (curve of first compound, second compound 0.3 µM): > 1 µM
- viability, T/C (second compound 0.000949 µM, first compound 0.00316 µM): 88.1%
- viability, T/C (second compound 0.000949 µM, first compound 0.01 µM): 91.4%
- viability, T/C (second compound 0.000949 µM, first compound 0.0316 µM): 95.6%
- viability, T/C (second compound 0.000949 µM, first compound 0.1 µM): 89.9%
- viability, T/C (second compound 0.000949 µM, first compound 0.316 µM): 79.7%
- viability, T/C (second compound 0.000949 µM, first compound 1 µM): 69.4%
- viability, T/C (second compound 0.003 µM, first compound 0.00316 µM): 92.8%
- viability, T/C (second compound 0.003 µM, first compound 0.01 µM): 80.3%
- viability, T/C (second compound 0.003 µM, first compound 0.0316 µM): 78.6%
- viability, T/C (second compound 0.003 µM, first compound 0.1 µM): 76%
- viability, T/C (second compound 0.003 µM, first compound 0.316 µM): 86.4%
- viability, T/C (second compound 0.003 µM, first compound 1 µM): 60.5%
- viability, T/C (second compound 0.00949 µM, first compound 0.00316 µM): 91.8%
- viability, T/C (second compound 0.00949 µM, first compound 0.01 µM): 93.3%
- viability, T/C (second compound 0.00949 µM, first compound 0.0316 µM): 73.7%
- viability, T/C (second compound 0.00949 µM, first compound 0.1 µM): 94%
- viability, T/C (second compound 0.00949 µM, first compound 0.316 µM): 83.2%
- viability, T/C (second compound 0.00949 µM, first compound 1 µM): 62.9%
- viability, T/C (second compound 0.03 µM, first compound 0.00316 µM): 70%
- viability, T/C (second compound 0.03 µM, first compound 0.01 µM): 87.7%
- viability, T/C (second compound 0.03 µM, first compound 0.0316 µM): 85.2%
- viability, T/C (second compound 0.03 µM, first compound 0.1 µM): 90.6%
- viability, T/C (second compound 0.03 µM, first compound 0.316 µM): 63.4%
- viability, T/C (second compound 0.03 µM, first compound 1 µM): 57.9%
- viability, T/C (second compound 0.0949 µM, first compound 0.00316 µM): 77.8%
- viability, T/C (second compound 0.0949 µM, first compound 0.01 µM): 83%
- viability, T/C (second compound 0.0949 µM, first compound 0.0316 µM): 81.2%
- viability, T/C (second compound 0.0949 µM, first compound 0.1 µM): 61.9%
- viability, T/C (second compound 0.0949 µM, first compound 0.316 µM): 83.3%
- viability, T/C (second compound 0.0949 µM, first compound 1 µM): 64.3%
- viability, T/C (second compound 0.3 µM, first compound 0.00316 µM): 81.6%
- viability, T/C (second compound 0.3 µM, first compound 0.01 µM): 72.9%
- viability, T/C (second compound 0.3 µM, first compound 0.0316 µM): 73.4%
- viability, T/C (second compound 0.3 µM, first compound 0.1 µM): 84.2%
- viability, T/C (second compound 0.3 µM, first compound 0.316 µM): 71.4%
- viability, T/C (second compound 0.3 µM, first compound 1 µM): 50.2%
